According to US20080221074A1, “Drug Screen and Treatment Method” (priority 2006, published 2008):

Tested on: collagen induced arthritis
Experiment: collagen induced arthritis (bCII), Foxp3+ cells and clinical score
Assay type: in vivo, DBA/1Lac/J mice
Experimental: Increase of CD4^+CD25^+ T regulatory cells or their activity in vivo. The compound 17α-ethynylandrost-5-ene-3β,7β,17β-triol was administered to mice essentially as described in a previously described collagen induced arthritis animal model. H. Offner et al., Clin. Immunol., 110:181-190, 2006.
DBA/1Lac/J mice were used for the study. The mice were obtained from Jackson Laboratories (Bar Harbor, Harbor, […].) and housed in accordance with applicable institutional guidelines. Bovine type II collagen (bCII) was used to induce collagen induced arthritis (CIA) by immunizing 8-week-old mice with 200 μg of bCII emulsified 1:1 with CFA containing 200 μg Mycobacterium tuberculosis (100 μL; Difco, Detroit, Mich.). The antigen was injected intradermally at the base of the tail. The animals were monitored for 4-7 weeks to observe the onset and progression of the disease post-immunization. The arthritic severity was evaluated with a grading system for each paw according to the following scale: 0=no redness or swelling; 1=slight swelling in ankle or redness in foot; 2=progressed swelling and inflammation and redness from ankle to mid foot; 3=swelling and inflammation of entire foot; 4=swelling and inflammation of entire foot including toes.
After immunization, the mice were treated with the drug at 40 mg/kg/day in vehicle by oral gavage beginning at the start of observable clinical disease (beginning at about 26-27 days after immunization). The vehicle that was used for the protocol was 30% cyclodextrin-sulfobutylether in water. The cyclodextrin-sulfobutylether was obtained commercially (Captisol™ available at cydexinc.com). The drug formulation was 20 mg drug/mL in the vehicle.

In the case of `C#C[C@]1(O)CC[C@H]2[C@@H]3[C@@H](O)C=C4C[C@@H](O)CC[C@]4(C)[C@H]3CC[C@@]21C` [17α-ethynylandrost-5-ene-3β,7β,17β-triol], the “Foxp3^+ CD4^+ cells by cell sorter analysis” value (40 mg/kg/day oral gavage) is reported as 1.4%, the “maximum mean clinical score” value (day 34 after immunization) is reported as “about 5” and the mean clinical score (day 49 after immunization) is reported as “about 3”.
